Results from patent US4075190A, “Pentapeptide with morphine-like activity” (American Home Products Corporation, priority 1977, dated 1978).
Square brackets hold non-standard residues; d marks the D form. Peptide text beside a SMILES is read from it.

How the values were obtained:
[1] = tested on: opiate receptors; assay: displacement of 3H-naloxone from binding sites in rat brain homogenates
[2] = tested on: rats; assay: rat-tail flick method, intracerebroventricular injection; format: in vivo; settings: for Mean % Change ± SEM: change in latency, drug minus baseline; for analgesic effect / pain threshold: injected into the lateral brain ventricle; for analgesic effect / pain threshold / Mean Latency ± SEM, Drug: rat-tail flick; for Mean Latency ± SEM, Drug: after drug
Description: In this test method, which is a standard test for analgesia, a light beam is focused on the tip of the rat's tail, and the pain threshold of the animal is measured by the latency of the rat to remove his tail from the noxious heat source. When tested by the rat-tail flick method by intracerebroventricular injection, according to the procedure of Belluzzi et al., Nature, 260, 625 (1976), the pentapeptide H-Tyr-Gly-Gly-Phe-d-Lys-OH produced the effects set forth in Table I.
*All drugs were dissolved in […]. of Ringer's solution and injected int
the lateral ventricle through permanently-indwelling cannulae.

[3] = tested on: mouse vas deferens; settings: cited from earlier work
[4] = tested on: opiate receptor; settings: brain homogenates; cited from earlier work
[5] = tested on: guinea pig ileum; settings: cited from earlier work
[6] = tested on: rats; settings: injection in the brain ventricle in rats; cited from earlier work
[7] = dose 100 μg into the lateral ventricle
[8] = dose 10 μg into the lateral ventricle

Q: What does the source list for NCCCC[C@@H](NC(=O)[C@H](Cc1ccccc1)NC(=O)CNC(=O)CNC(=O)[C@@H](N)Cc1ccc(O)cc1)C(=O)O [H-Tyr-Gly-Gly-Phe-D-Lys-OH, L-Tyrosyl-Glycyl-Glycyl-L-Phenylalanyl-D-Lysine] (H-YGGF[dK]-OH)?
A: binding to opiate receptors ([1]; in vitro): weak binding; displacement of 3H-naloxone from binding sites ([1]; rat brain homogenates): capable of displacing 3h-naloxone; Mean % Change ± SEM [2, 7]: 78.97 ± 7.85%; analgesic effect / pain threshold [2]: produced an increase in pain threshold; analgesic effect / pain threshold ([2]; listed as pentapeptide of Formula I): exerts an analgesic effect; Mean Latency ± SEM, Drug [2, 7]: 6.16 ± 0.06

Q: Which “block of electrically evoked contractions” value [3] does the source give for CSCC[C@H](NC(=O)[C@H](Cc1ccccc1)NC(=O)CNC(=O)CNC(=O)[C@@H](N)Cc1ccc(O)cc1)C(=O)O [Methionine-Enkephalin, H-Tyr-Gly-Gly-Phe-Met-OH] here?
A: mimic the ability of morphine to block electrically evoked contractions

Q: And the “inhibition of stereospecific receptor binding of 3H-naloxone” value [4]?
A: inhibit the stereospecific receptor binding

Q: What about the “block of electrically evoked contractions” value [5] of the same molecule?
A: mimic the ability of morphine to block electrically evoked contractions

Q: What about the analgesia [6] of the same molecule?
A: induce a profound analgesia that is fully reversible by naloxone

Q: What about the “Mean % Change ± SEM” value [2, 7] of the same molecule?
A: 37.2 ± 8.8%

Q: What about the “Mean Latency ± SEM, Drug” value [2, 7] of the same molecule?
A: 5.19 ± 0.31

Q: What does the source list for CN1CC[C@]23c4c5ccc(O)c4O[C@H]2[C@@H](O)C=C[C@H]3[C@H]1C5.O=S(=O)(O)O [Morphine Sulfate]?
A: Mean % Change ± SEM [2, 8]: 65.4 ± 9.1%; Mean Latency ± SEM, Drug [2, 8]: 6.59 ± 0.73

Q: Which analgesia [6] does the source give for “H-Tyr-Gly-Gly-Phe-Leu-OH [leucine-enkephalin]” here?
A: induce a profound analgesia that is fully reversible by naloxone
